Data as given in ChEMBL document CHEMBL3112510, “Optimization, pharmacophore modeling and 3D-QSAR studies of sipholanes as breast cancer migration and proliferation inhibitors” (Eur J Med Chem, 2014).
The source made the active and inactive calls. No cut-off for these calls is given here.

How the values were obtained:
[1] = target: Protein-tyrosine kinase 6 (Homo sapiens) (UniProt Q13882); experiment: Inhibition of PTK6 phosphorylation in human MDA-MB-231 cells at 20 uM after 72 hrs by Western blot analysis; type: cell-based
Protein-tyrosine kinase 6 (Homo sapiens), sequence (Q13882 whole entry, looked up): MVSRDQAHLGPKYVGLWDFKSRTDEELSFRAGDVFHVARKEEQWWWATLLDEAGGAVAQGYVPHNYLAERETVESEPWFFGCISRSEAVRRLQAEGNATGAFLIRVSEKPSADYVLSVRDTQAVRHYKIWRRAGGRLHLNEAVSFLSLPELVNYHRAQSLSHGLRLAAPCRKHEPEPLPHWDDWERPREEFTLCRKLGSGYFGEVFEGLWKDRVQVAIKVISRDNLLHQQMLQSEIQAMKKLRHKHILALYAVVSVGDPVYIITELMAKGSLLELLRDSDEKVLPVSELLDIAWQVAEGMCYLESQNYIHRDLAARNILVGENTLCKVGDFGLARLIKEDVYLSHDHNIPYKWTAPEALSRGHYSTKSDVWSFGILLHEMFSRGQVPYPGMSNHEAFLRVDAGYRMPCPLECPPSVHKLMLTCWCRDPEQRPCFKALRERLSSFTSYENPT

MDA-MB-231 [2] = experiment: Antiproliferative activity against human MDA-MB-231 cells after 72 hrs by MTT assay; conditions: MDA-MB-231, 72 h
MCF7 = experiment: cells; conditions: Homo sapiens, MCF7, 72 h
MDA-MB-231 [3] = experiment: Antimigratory activity in human MDA-MB-231 cells after 24 hrs by wound healing assay; conditions: MDA-MB-231, 24 h
[4] = Cytotoxicity against human MCF10A cells at => IC50 of antiproliferative assay after 24 hrs by MTT assay; conditions: mcf-10a
[5] = Cytotoxicity against human MCF10A cells at => IC50 of wound healing assay after 24 hrs by MTT assay; conditions: mcf-10a

| inhibition [1] | IC50 (MDA-MB-231 [2]) [µM] | IC50 (MCF7) [µM] | IC50 (MDA-MB-231 [3]) [µM] | IC50 (MDA-MB-231 [3]; read-out: pIC50 (converted)) [µM] | SMILES | Activity [4] | Activity [5] |
| --- | --- | --- | --- | --- | --- | --- | --- |
|  | 14 | 25.7 | 9.3 | 9.29 | CC1=CC[C@H]2[C@H](CC[C@]2(C)O)C(C)(C)[C@@H]1CC[C@H]1[C@]2(C)CC[C@H](OC(=O)c3ccco3)C(C)(C)O[C@H]2CC[C@@]1(C)O | Non-toxic | Non-toxic |
|  | 22.2 | > 50 | 11.9 | 11.9 | CC1=CC[C@H]2[C@H](CC[C@]2(C)O)C(C)(C)[C@@H]1CC[C@H]1[C@]2(C)CC[C@H](OC(=O)c3ccc(C(F)(F)F)c(F)c3)C(C)(C)O[C@H]2CC[C@@]1(C)O | Non-toxic | Non-toxic |
|  | 11.1 | 21.3 | 3.5 | 3.48 | CC1=CC[C@H]2[C@H](CC[C@]2(C)O)C(C)(C)[C@@H]1CC[C@H]1[C@]2(C)CC[C@H](OC(=O)c3ccc([N+](=O)[O-])o3)C(C)(C)O[C@H]2CC[C@@]1(C)O | Non-toxic | Non-toxic |
|  | 36.3 | 37.9 | 6.1 | 6.1 | CC1=CC[C@H]2[C@H](CC[C@]2(C)O)C(C)(C)[C@@H]1CC[C@H]1[C@]2(C)CC[C@H](OC(=O)c3cccc(C(F)(F)F)c3)C(C)(C)O[C@H]2CC[C@@]1(C)O | Non-toxic | Non-toxic |
|  | 11.3 | 33.5 | 2.4 | 2.4 | CC1=CC[C@H]2[C@H](CC[C@]2(C)O)C(C)(C)[C@@H]1CC[C@H]1[C@]2(C)CC[C@H](OC(=O)c3ccc(F)cc3)C(C)(C)O[C@H]2CC[C@@]1(C)O | Non-toxic | Non-toxic |
|  | 28.7 | 11.3 | 22.7 | 22.7 | CC1=CC[C@H]2[C@H](CC[C@]2(C)O)C(C)(C)[C@@H]1CC[C@H]1[C@]2(C)CC[C@H](OC(=O)c3ccccc3F)C(C)(C)O[C@H]2CC[C@@]1(C)O | Non-toxic | Non-toxic |
|  | 34.7 | 36 | 5.9 | 5.9 | CC1=CC[C@H]2[C@H](CC[C@]2(C)O)C(C)(C)[C@@H]1CC[C@H]1[C@]2(C)CC[C@H](OC(=O)c3cccc([N+](=O)[O-])c3)C(C)(C)O[C@H]2CC[C@@]1(C)O | Non-toxic | Non-toxic |
|  | 8.9 | 21.6 | 3.4 | 3.35 | CC1=CC[C@H]2[C@H](CC[C@]2(C)O)C(C)(C)[C@@H]1CC[C@H]1[C@]2(C)CC[C@H](OC(=O)c3ccc([N+](=O)[O-])cc3)C(C)(C)O[C@H]2CC[C@@]1(C)O | Non-toxic | Non-toxic |
|  | 27.9 | > 50 | 18 | 18 | CC1=CC[C@H]2[C@H](CC[C@]2(C)O)C(C)(C)[C@@H]1CC[C@H]1[C@]2(C)CC[C@H](OC(=O)CCC(=O)O)C(C)(C)O[C@H]2CC[C@@]1(C)O |  |  |

Continued, compound first:

| SMILES | inhibition [1] | IC50 (MDA-MB-231 [2]) [µM] | IC50 (MCF7) [µM] | IC50 (MDA-MB-231 [3]) [µM] | IC50 (MDA-MB-231 [3]; read-out: pIC50 (converted)) [µM] | Activity [4] | Activity [5] |
| --- | --- | --- | --- | --- | --- | --- | --- |
| CC1=CC[C@H]2[C@H](CC[C@]2(C)O)C(C)(C)[C@@H]1CC[C@H]1[C@]2(C)CC[C@H](OC(=O)c3ccccc3)C(C)(C)O[C@H]2CC[C@@]1(C)O | Active | 16.1 | 21 | 7.9 | 7.91 |  |  |
| CC1=CC[C@H]2[C@H](CC[C@]2(C)O)C(C)(C)[C@@H]1CC[C@H]1[C@]2(C)CC[C@H](OC(=O)c3ccc(Cl)c(Cl)c3)C(C)(C)O[C@H]2CC[C@@]1(C)O |  | 8.1 | 11.9 | 1.3 | 1.3 | Non-toxic | Non-toxic |
| COc1ccc(C(=O)O[C@H]2CC[C@]3(C)[C@H](CC[C@@](C)(O)[C@H]3CC[C@@H]3C(C)=CC[C@H]4[C@H](CC[C@]4(C)O)C3(C)C)OC2(C)C)cc1 |  | 30.6 | 41.7 | 17.9 | 17.9 | Non-toxic | Non-toxic |
| CC1=CC[C@H]2[C@H](CC[C@]2(C)O)C(C)(C)[C@@H]1CC[C@H]1[C@]2(C)CC[C@H](OC(=O)c3ccccc3C(F)(F)F)C(C)(C)O[C@H]2CC[C@@]1(C)O |  | 31.5 | 19.2 | 34.5 | 34.5 | Non-toxic | Non-toxic |
| CC1=CC[C@H]2[C@H](CC[C@]2(C)O)C(C)(C)[C@@H]1CC[C@H]1[C@]2(C)CC[C@H](OC(=O)c3ccccc3Cl)C(C)(C)O[C@H]2CC[C@@]1(C)O |  | 24.3 | 12.1 | 6.1 |  | Non-toxic | Non-toxic |
| CC1=CC[C@H]2[C@H](CC[C@]2(C)O)C(C)(C)[C@@H]1CC[C@H]1[C@]2(C)CC[C@H](OC(=O)c3ccccc3[N+](=O)[O-])C(C)(C)O[C@H]2CC[C@@]1(C)O |  | 38.7 | 5.2 | 18.6 | 18.6 | Non-toxic | Non-toxic |
| CC1=CC[C@H]2[C@H](CC[C@]2(C)O)C(C)(C)[C@@H]1CC[C@H]1[C@]2(C)CC[C@H](OC(=O)c3ccc(C(F)(F)F)cc3)C(C)(C)O[C@H]2CC[C@@]1(C)O |  | 19.5 | 23.4 | 7.8 | 7.8 | Non-toxic | Non-toxic |
| CC1(C)CC[C@](C)(O)[C@H]2C[C@H](O)[C@]3(C)O[C@]3(CC[C@H]3[C@]4(C)CC[C@H](O)C(C)(C)O[C@H]4CC[C@@]3(C)O)[C@H]21 |  | > 50 | > 50 | > 50 | 92.9 |  |  |
| CC(C)=CCC[C@@]1(C)C(CC[C@H]2[C@]3(C)CC[C@H](O)C(C)(C)O[C@H]3CC[C@@]2(C)O)=C(C)CC[C@H]1O [SIPHONELLINOL D] |  | > 50 | > 50 | > 50 | 67.3 |  |  |
| CC1=CC[C@H]2[C@H](CC[C@]2(C)O)C(C)(C)[C@@H]1CC[C@H]1[C@]2(C)CC/C(=N/OCc3ccccc3)C(C)(C)O[C@H]2CC[C@@]1(C)O |  | 38.2 | > 50 | 31.4 | 31.4 |  |  |
| CC1=CC[C@H]2[C@H](CC[C@]2(C)O)C(C)(C)[C@@H]1CC[C@H]1[C@]2(C)CC[C@H](OC(=O)c3ccc(C(F)(F)F)cc3F)C(C)(C)O[C@H]2CC[C@@]1(C)O |  | 36.3 | > 50 | 26.4 | 26.4 | Non-toxic | Non-toxic |
| CC1=CC[C@H]2[C@@H]1CC=C(C)[C@@H](CC[C@H]1[C@]3(C)CC[C@H](OC(=O)c4ccncc4)C(C)(C)O[C@H]3CC[C@@]1(C)O)C2(C)C |  | 19.1 | > 50 | 9.5 | 9.51 |  |  |
| CC1=CC[C@H]2[C@H](CC[C@]2(C)O)C(C)(C)[C@@H]1CC[C@H]1[C@]2(C)CC[C@H](OC(=O)NS(=O)(=O)c3ccc(C)cc3)C(C)(C)O[C@H]2CC[C@@]1(C)O |  | 47.1 | > 50 | 18 |  |  |  |
